Earlier results, collected in patent publication US8097636B2, “Heterocyclic derivatives as modulators of ion channels” (Vertex Pharmaceuticals Incorporated, priority 2007, dated 2012).

Biological target: NaV1.3 (Homo sapiens, UniProt Q9NY46)
Details: read-out: TTX IC50

Sequence of NaV1.3 (Q9NY46 whole entry, looked up): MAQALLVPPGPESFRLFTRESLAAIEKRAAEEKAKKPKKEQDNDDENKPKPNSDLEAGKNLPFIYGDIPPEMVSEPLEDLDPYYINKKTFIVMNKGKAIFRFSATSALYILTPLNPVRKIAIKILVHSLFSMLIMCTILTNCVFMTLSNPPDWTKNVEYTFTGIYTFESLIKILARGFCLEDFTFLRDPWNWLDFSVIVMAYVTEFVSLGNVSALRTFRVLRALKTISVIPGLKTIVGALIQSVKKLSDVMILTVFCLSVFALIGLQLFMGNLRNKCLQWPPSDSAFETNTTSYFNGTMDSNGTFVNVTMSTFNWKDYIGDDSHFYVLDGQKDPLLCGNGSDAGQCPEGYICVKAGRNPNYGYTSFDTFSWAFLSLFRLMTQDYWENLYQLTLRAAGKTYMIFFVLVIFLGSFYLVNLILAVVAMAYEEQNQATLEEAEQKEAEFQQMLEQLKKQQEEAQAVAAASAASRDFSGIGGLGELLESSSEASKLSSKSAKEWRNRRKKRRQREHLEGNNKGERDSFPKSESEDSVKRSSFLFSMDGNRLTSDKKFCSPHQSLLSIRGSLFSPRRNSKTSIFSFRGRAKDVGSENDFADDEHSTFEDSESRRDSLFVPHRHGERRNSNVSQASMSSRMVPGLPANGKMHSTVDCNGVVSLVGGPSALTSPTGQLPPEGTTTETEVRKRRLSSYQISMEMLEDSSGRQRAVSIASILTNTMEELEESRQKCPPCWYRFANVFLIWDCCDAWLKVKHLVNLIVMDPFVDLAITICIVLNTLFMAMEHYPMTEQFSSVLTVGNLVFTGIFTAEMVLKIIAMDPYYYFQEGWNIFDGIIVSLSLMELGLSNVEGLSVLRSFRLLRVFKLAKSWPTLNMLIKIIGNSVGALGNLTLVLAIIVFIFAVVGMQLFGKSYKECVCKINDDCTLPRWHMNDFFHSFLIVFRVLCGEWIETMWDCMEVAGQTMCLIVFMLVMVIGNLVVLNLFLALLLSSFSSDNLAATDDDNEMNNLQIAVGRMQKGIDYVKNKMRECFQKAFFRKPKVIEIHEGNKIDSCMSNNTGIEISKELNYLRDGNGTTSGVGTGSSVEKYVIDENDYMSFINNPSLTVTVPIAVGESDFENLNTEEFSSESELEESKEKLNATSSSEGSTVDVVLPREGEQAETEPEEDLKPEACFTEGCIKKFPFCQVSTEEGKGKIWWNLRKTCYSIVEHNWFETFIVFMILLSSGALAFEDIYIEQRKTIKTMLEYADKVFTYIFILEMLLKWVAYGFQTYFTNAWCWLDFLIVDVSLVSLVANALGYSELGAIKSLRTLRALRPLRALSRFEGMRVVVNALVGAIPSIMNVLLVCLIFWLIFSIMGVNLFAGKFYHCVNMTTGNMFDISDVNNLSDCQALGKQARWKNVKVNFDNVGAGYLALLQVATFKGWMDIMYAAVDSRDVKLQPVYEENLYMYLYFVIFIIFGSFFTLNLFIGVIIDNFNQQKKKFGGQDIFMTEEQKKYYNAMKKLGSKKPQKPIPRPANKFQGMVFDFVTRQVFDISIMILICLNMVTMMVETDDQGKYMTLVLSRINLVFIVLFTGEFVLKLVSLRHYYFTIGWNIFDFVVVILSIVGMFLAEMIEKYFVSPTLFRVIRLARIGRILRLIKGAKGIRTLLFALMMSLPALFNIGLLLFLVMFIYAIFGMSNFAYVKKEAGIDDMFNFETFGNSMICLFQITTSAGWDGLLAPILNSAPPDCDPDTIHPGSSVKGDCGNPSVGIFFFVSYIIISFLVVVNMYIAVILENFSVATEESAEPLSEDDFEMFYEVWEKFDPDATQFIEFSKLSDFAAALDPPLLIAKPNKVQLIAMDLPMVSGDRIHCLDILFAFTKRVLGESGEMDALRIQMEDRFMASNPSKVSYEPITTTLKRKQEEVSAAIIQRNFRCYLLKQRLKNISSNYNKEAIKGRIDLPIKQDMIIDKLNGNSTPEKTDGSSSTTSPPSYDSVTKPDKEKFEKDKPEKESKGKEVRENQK

## NC1=N[C@H](O)[C@H]2[C@H]3O[C@]4(O)O[C@@H]([C@@H](O)[C@@]2(N1)[C@@H]4O)[C@]3(O)CO [TTX, tetrodotoxin]
  IC50: 0.015 µM
